In ChEMBL document CHEMBL6092178, “Discovery of a novel KV7.2/7.3 channels agonist for the treatment of neuropathic pain” (Eur J Med Chem, 2024):

Assays:
[1] = target: Voltage-gated potassium channel, KQT; KCNQ2(Kv7.2)/KCNQ3(Kv7.3) (Homo sapiens, UniProt O43525+O43526); test: Agonist activity at human KCNQ2/3 transfected in human HEK293 cells incubated for 30 mins by fluorimetric assay; type: cell-based
[2] = Hepatotoxicity in rat assessed as increase in serum ALT level at 10 to 20 mg/kg, IG administered for 28 days and measured after 14 days relative to control; type: toxicity, organism-based; conditions: in vivo, po, 672 h, dose 10-20 mg/kg, time 28 day
[3] = Hepatotoxicity in rat assessed as change in serum total bilirubin (TBIL) level at 10 to 40 mg/kg, IG administered for 28 days and measured after 14 days; type: toxicity, organism-based; conditions: in vivo, po, 672 h, dose 10-40 mg/kg, time 28 day
[4] = Hepatotoxicity in rat assessed as change in serum AST level at 10 to 40 mg/kg, IG administered for 28 days and measured after 14 days; type: toxicity, organism-based; conditions: in vivo, po, 672 h, dose 10-40 mg/kg, time 28 day
[5] = Hepatotoxicity in rat assessed as increase in serum ALT level at 40 mg/kg, IG administered for 28 days and measured after 14 days; type: toxicity, organism-based; conditions: in vivo, po, 672 h, time 28 day
[6] = Hepatotoxicity in rat assessed as change in serum ALP level at 10 to 40 mg/kg, IG administered for 28 days and measured after 14 days; type: toxicity, organism-based; conditions: in vivo, po, 672 h, dose 10-40 mg/kg, time 28 day
[7] = Hepatotoxicity in rat assessed as increase in serum TBIL level at 40 mg/kg, IG administered for 28 days and measured after 14 days; type: toxicity, organism-based; conditions: in vivo, po, 672 h, time 28 day

Chain of Voltage-gated potassium channel, KQT; KCNQ2(Kv7.2)/KCNQ3(Kv7.3) (O43526 whole entry): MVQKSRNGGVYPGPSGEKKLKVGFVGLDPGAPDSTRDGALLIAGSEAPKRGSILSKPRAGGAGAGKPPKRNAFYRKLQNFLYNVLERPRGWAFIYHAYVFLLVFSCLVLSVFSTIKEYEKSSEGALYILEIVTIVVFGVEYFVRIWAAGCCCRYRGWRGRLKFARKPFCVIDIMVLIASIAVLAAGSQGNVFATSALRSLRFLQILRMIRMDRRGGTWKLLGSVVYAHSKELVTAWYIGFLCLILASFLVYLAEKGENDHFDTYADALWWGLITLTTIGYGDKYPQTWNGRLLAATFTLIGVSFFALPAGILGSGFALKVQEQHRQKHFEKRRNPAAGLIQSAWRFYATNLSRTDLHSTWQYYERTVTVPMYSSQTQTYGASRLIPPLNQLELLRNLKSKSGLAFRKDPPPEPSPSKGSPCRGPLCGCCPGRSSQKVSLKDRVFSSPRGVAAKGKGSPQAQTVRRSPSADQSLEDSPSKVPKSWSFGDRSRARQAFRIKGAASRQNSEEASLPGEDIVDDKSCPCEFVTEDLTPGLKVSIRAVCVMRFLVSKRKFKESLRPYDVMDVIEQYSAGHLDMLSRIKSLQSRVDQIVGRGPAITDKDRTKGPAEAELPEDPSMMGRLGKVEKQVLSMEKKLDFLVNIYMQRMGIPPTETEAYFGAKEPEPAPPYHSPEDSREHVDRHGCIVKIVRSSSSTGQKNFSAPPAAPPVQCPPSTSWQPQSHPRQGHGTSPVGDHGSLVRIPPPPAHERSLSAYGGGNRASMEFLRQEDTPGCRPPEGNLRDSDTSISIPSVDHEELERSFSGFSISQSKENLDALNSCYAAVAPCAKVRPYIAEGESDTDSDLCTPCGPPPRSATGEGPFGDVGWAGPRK
Chain of Voltage-gated potassium channel, KQT; KCNQ2(Kv7.2)/KCNQ3(Kv7.3) (O43525 whole entry): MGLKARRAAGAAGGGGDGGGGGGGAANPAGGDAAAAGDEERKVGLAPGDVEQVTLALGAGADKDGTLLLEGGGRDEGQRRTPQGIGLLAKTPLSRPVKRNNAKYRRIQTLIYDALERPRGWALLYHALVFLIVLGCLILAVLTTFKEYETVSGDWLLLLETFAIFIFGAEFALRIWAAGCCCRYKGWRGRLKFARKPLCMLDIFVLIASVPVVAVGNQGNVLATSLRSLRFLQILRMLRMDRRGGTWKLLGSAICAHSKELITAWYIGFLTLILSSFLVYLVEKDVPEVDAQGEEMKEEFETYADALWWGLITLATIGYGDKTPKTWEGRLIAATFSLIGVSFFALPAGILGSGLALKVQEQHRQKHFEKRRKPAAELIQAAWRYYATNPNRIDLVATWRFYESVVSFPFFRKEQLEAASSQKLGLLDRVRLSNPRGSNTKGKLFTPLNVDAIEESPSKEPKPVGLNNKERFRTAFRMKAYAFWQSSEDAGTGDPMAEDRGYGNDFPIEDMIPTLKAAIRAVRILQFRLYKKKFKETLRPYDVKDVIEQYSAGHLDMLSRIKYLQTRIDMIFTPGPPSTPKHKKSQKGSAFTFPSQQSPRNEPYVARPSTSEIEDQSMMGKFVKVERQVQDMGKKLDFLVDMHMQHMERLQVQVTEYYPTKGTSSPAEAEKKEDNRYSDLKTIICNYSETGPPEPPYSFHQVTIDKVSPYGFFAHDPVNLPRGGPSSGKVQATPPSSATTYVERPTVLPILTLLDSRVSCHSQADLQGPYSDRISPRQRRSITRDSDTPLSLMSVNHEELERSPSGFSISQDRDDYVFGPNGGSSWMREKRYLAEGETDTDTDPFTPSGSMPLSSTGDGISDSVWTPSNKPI

Row | Compound | EC50 [1] [µM] | also measured
1 | CC(=O)Nc1ccc(OCc2ccc(F)cc2)nc1NC(C)=O | 7.61 | 
2 | COc1ccc(COc2ccc(N)c(NC(C)=O)n2)cc1 | 13.5 | 
3 | CC(=O)Nc1nc(OCCc2ccc(F)cc2)ccc1N | 9.39 | 
4 | CC(C)C(=O)Nc1nc(OCc2ccc(F)cc2)ccc1N | 18.4 | 
5 | CC(=O)Nc1nc(OCc2ccncc2)ccc1N | 35.3 | 
6 | CCOC(=O)Nc1nc(OCc2ccc(F)cc2)ccc1N | 12.1 | 
7 | CCOC(=O)Nc1ccc(NCc2ccc(F)cc2)nc1N [FLUPIRTINE] | 1.9 | Activity [2]: < 70%; Activity [3]: Non-toxic; Activity [4]: Non-toxic; Activity [5]: Toxic; Activity [6]: Non-toxic; Activity [7]: Toxic
